Assay results published in patent US20240252488A1 (KOREA RESEARCH INSTITUTE OF CHEMICAL TECHNOLOGY, priority 2020, published 2024).

Legend:
MLKL [1] = biological target: T1, MLKL (Homo sapiens, UniProt Q8NB16); assay: MLKL degradation assay in HepG2 cell line (western blot); assay type: cell-based; parameters: endogenous in cells; host or cells: HepG2 or HaCaT; conditions: cell line not given; for Degradation assay (Degradation %) 1 μM: compound 1 μM; for Degradation assay (Degradation %) 10 μM: compound 10 μM
T1 sequence (Q8NB16 1-471): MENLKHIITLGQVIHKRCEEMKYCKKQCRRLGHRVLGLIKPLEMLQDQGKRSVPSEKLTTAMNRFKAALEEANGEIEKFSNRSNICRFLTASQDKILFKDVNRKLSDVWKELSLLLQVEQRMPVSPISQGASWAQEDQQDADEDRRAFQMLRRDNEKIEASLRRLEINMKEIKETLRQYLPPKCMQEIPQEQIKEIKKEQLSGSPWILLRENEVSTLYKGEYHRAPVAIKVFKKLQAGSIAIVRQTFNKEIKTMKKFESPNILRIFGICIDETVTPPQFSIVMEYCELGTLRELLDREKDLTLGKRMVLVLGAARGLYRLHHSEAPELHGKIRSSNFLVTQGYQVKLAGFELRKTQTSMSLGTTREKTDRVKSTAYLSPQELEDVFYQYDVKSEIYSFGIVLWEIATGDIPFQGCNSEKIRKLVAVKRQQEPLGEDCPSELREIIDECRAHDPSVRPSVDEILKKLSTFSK
Summary of the method: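 HepG2 cells were exposed to compound at a final 1 or 10 μM for 20-24 hours at 37 °C, 5% CO2. RIPA lysates were normalized by BCA assay, 10-15 μg protein resolved by SDS-PAGE, and MLKL levels detected by western blot with chemiluminescence.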

FADD−/− Jurkat cells = assay: Necroptosis inhibition assay, TNF-α-induced necroptosis (CellTiter-Glo 2.0); assay type: cell-based, human; conditions: TNF-α 15 ng/mL; for Necroptosis inhibition assay (Rescue %) 1 μM: compound 1 μM; for Necroptosis inhibition assay (Rescue %) 10 μM: compound 10 μM
Summary of the method: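 Cells at 5.0×10^5 cells/mL were pretreated with compound (final 0.1, 1 and 10 μM) for 30 minutes at room temperature, then given TNF-α at 15 ng/mL final. After 20 to 24 hours at 37° C, 5% CO2, viability was read as ATP luminescence to calculate cytotoxicity and necroptosis inhibition rate.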

MLKL [2] = biological target: T1, MLKL; assay: Measurement of binding affinity with MLKL receptor (competitive binding assay, Kd); parameters: made in house; host or cells: HEK 293 cell line (T7 phage in E. coli BL21-derived host is also described)
Summary of the method: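 Kd comes from a bead-based competition format: compound-dependent loss of DNA-tagged, HEK 293-expressed MLKL capture, measured as eluate kinase by qPCR. Final DMSO is 0.9%.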

Structure (SMILES) | Degradation assay (Degradation %) 1 μM (MLKL [1]) [%] | Degradation assay (Degradation %) 10 μM (MLKL [1]) [%] | Kd (MLKL [2]) [nM] | Necroptosis inhibition assay (Rescue %) 1 μM (FADD−/− Jurkat cells) [%] | Necroptosis inhibition assay (Rescue %) 10 μM (FADD−/− Jurkat cells) [%] | Necroptosis inhibition assay (Rescue %) 1 μM (FADD−/− Jurkat cells; FADD−/− Jurkat cells) [%] | Necroptosis inhibition assay (Rescue %) 10 μM (FADD−/− Jurkat cells; FADD−/− Jurkat cells) [%]
Nc1ncc(-c2cnn(C3CCN(CC4CCN(CC(=O)NCCNc5cccc6c5C(=O)N(C5CCC(=O)NC5=O)C6=O)CC4)CC3)c2)nc1C(=O)OC(C(=O)Nc1ccc(F)cc1)c1ccccc1 (stereo not shown) [TDH-234, 2-((4-fluorophenyl)amino)-2-oxo-1-phenylethyl 3-amino-6-(1-(1-((1-(2-((2-((2-(2,6-dioxopiperidin-3-yl)-1,3-dioxoisoindolin-4-yl)amino)ethyl)amino)-2-oxoethyl)piperidin-4-yl)methyl)piperidin-4-yl)-1H-pyrazol-4-yl)pyrazine-2-carboxylate] | 64.08 | 54.89 | 1.6 | 35.55 | 26.56 | – | –
Nc1ncc(-c2cnn(C3CCN(CC4CCN(CC(=O)N5CCC(Nc6cccc7c6C(=O)N(C6CCC(=O)NC6=O)C7=O)CC5)CC4)CC3)c2)nc1C(=O)OC(C(=O)Nc1ccc(F)cc1)c1ccccc1 (stereo not shown) [TDH-238, 2-((4-fluorophenyl)amino)-2-oxo-1-phenylethyl 3-amino-6-(1-(1-((1-(2-(4-((2-(2,6-dioxopiperidin-3-yl)-1,3-dioxoisoindolin-4-yl)amino)piperidin-1-yl)-2-oxoethyl)piperidin-4-yl)methyl)piperidin-4-yl)-1H-pyrazol-4-yl)pyrazine-2-carboxylate] | 30.48 | 18.31 | 1.7 | 43.63 | 31.99 | – | –

Continued by falling Kd (MLKL [2]), values first:

Degradation assay (Degradation %) 1 μM (MLKL [1]) [%] | Degradation assay (Degradation %) 10 μM (MLKL [1]) [%] | Kd (MLKL [2]) [nM] | Structure (SMILES) | Necroptosis inhibition assay (Rescue %) 1 μM (FADD−/− Jurkat cells) [%] | Necroptosis inhibition assay (Rescue %) 10 μM (FADD−/− Jurkat cells) [%] | Necroptosis inhibition assay (Rescue %) 1 μM (FADD−/− Jurkat cells; FADD−/− Jurkat cells) [%] | Necroptosis inhibition assay (Rescue %) 10 μM (FADD−/− Jurkat cells; FADD−/− Jurkat cells) [%]
32.16 | 27.8 | 4.9 | Nc1ncc(-c2cnn(C3CCN(CC4CCN(CC(=O)NC5CCN(c6cccc7c6C(=O)N(C6CCC(=O)NC6=O)C7=O)CC5)CC4)CC3)c2)nc1C(=O)OC(C(=O)Nc1ccc(F)cc1)c1ccccc1 (stereo not shown) [TDH-236, 2-((4-fluorophenyl)amino)-2-oxo-1-phenylethyl 3-amino-6-(1-(1-((1-(2-((1-(2-(2,6-dioxopiperidin-3-yl)-1,3-dioxoisoindolin-4-yl)piperidin-4-yl)amino)-2-oxoethyl)piperidin-4-yl)methyl)piperidin-4-yl)-1H-pyrazol-4-yl)pyrazine-2-carboxylate] | 42.35 | 46.48 | – | –
14.36 | 54.11 | 3 | Nc1ncc(-c2cnn(C3CCN(CCOCCNC(=O)COc4cccc5c4C(=O)N(C4CCC(=O)NC4=O)C5=O)CC3)c2)nc1C(=O)O[C@@H](C(=O)Nc1ccc(F)cc1)c1ccccc1 (stereo partly drawn) [TDH-134, (R)-2-((4-fluorophenyl)amino)-2-oxo-1-phenylethyl 3-amino-6-(1-(1-(2-(2-(2-((2-(2,6-dioxopiperidin-3-yl)-1,3-dioxoisoindolin-4-yl)oxy)acetamido)ethoxy)ethyl)piperidin-4-yl)-1H-pyrazol-4-yl)pyrazine-2-carboxylate] | 50.04 | 86.09 | – | –
77.02 | 44.73 | 0.57 | Nc1ncc(-c2cnn(C3CCN(C(=O)C4CCN(C(=O)CNc5ccc6nnn(C7CCC(=O)NC7=O)c(=O)c6c5)CC4)CC3)c2)nc1C(=O)O[C@@H](C(=O)Nc1ccc(F)cc1)c1ccccc1 (stereo partly drawn) [TDH-408, (R)-2-((4-fluorophenyl)amino)-2-oxo-1-phenylethyl 3-amino-6-(1-(1-(1-((3-(2,6-dioxopiperidin-3-yl)-4-oxo-3,4-dihydrobenzo[d][1,2,3]triazin-6-yl)glycyl)piperidine-4-carbonyl)piperidin-4-yl)-1H-pyrazol-4-yl)pyrazine-2-carboxylate] | – | – | 26.68 | 19.89
